In patent US20030055103A1, “Utilization of achyrocline satureoides ("Marcela") extracts and liposomal preparations of natural and semi-synthetic flavonoids for the prevention and treatment of the consequences of stroke and neurodegenerative diseases” (priority 2001, published 2003):
pIC50: −log10 of the molar value. “Also recorded” adds a separate entry of the source. Where two headings read alike, the source gives them in different places. Peptide text beside a SMILES is read from it.

What was measured:
PC12 cells = experiment: PC12 cell survival after H2O2 oxidative insult (MTT reduction); assay type: cell-based; settings: 200 μM H2O2 30 min, result in words
Method: PC12 cells (Greene and Tischler 1976, Shafer and Atchison 1991) were grown in RPMI supplemented with 10% heat-inactivated horse serum (HSI), 5% fetal bovine serum (FBS), penicillin and streptomycin on a collagen matrix. Typically, cells were sow (1:4 in a total volume of 10 ml complete medium) in 100×20 mm cell culture dishes and grown at 37° C. in at atmosphere of 5% CO2 for a week. Media was changed twice a week. Cultures were not used in more than 25 passages.
Cells were plated at a low density (100 cells/μl) in 200 μl of complete medium on 96-well cell culture plates on a poli-D-lysine matrix to do all the experiments except the comet assay. To do the latter, 100×20mm-cell culture dishes were adequate. All the experiments were started 24 hrs after the sow.
Cells were exposed to H2O2 200 μM during half an hour (medium was changed to stop the treatment) and all the evaluations were fulfilled 2 hrs later.
This assay measures the reduction of 3-(4,5-dimethyl-thiazol-2-yl)-2,5-diphenil tetrazolium bromide (MTT) (yellowish) to formazan (blue) by mitochondrial dehydrogenases of the living cells. The fresh complete medium added after the treatment was supplemented with MTT (0.5 mg/ml ). Following an incubation period of 2 hrs, it was removed and half-its volume of dimethylsulfoxide (DMSO) was added to achieve solubilization. Absorption values were read immediately at 570-640 nm (Denizot and Lang 1986). […]

[1] = tested on: rats injected with 6-OHDA in the SN; experiment: 6-OHDA lesion of the Substantia Nigra (experimental parkinsonism), striatal dopamine; assay type: in vivo, rat; settings: given intraperitoneally before 6-OHDA, assessed eight days after, result in words
[2] = tested on: spontaneous lipoperoxidation of rat's brain membranes; experiment: Spontaneous lipoperoxidation of rat brain membranes (malondialdehyde production); assay type: biochemical; settings: for antioxidant potency / capacity: anti-lipoperoxidation assay (test not given); for pIC50: inhibition of spontaneous lipoperoxidation, rat brain membranes, read-out: IC50
[3] = Acute toxicity (species not given); settings: intraperitoneal or oral, doses up to 300 mg/kg
[4] = Quercetin concentration in rat blood after intraperitoneal administration; assay type: in vivo
From the text: FIG. 17. A graph of Quercetin concentration in rat blood at different periods after intraperitoneal administration.

male Sprague-Dawley rats = experiment: Permanent focal MCA occlusion, TTC morphometry and histology; assay type: in vivo, rat; settings: result in words

Row | pIC50 [2] | Structure (SMILES) | protection / cell survival after H2O2 insult (PC12 cells) | neuroprotection: dopamine level in ipsilateral striatum [1] | further results
1 |  | CC[C@H](C)[C@H](NC(=O)[C@H](CCC(=O)O)NC(=O)[C@@H](NC(C)=O)C(C)C)C(=O)N[C@H](C=O)CC(=O)O [VEID, acetyl-L-valyl-L-glutamyl-L-isoleucyl-L-aspart-1-al] (Ac-VEID-aldehyde) | block H2O2-induced cell death |  | 
2 |  | CN1CCCC1c1cccnc1 (stereo not drawn) [Nicotine] |  | reverted dopamine levels in the ipsilateral striatum | antioxidant potency / capacity ([2]; result in words): negligible
3 | 4.55 | Oc1cc(O)c2c(c1)OC(c1ccc(O)c(O)c1)C(O)C2 (stereo not drawn) [Catequin] |  |  | 
4 |  | Cc1c(C)c2c(c(C)c1O)CCC(C)(C(=O)O)O2 (stereo not drawn) [trolox] | only marcela extracts, quercetin or structurally similar flavonoids protected PC12 cells |  | 
5 | 4.31 | O=C(O)/C=C/c1ccc(O)c(O)c1 [Caffeic acid] |  |  | 
6 |  | O=c1c(O)c(-c2ccc(O)c(O)c2)oc2cc(O)ccc12 [fisetin] | did show neuroprotectant capacity |  | 
7 |  | CC(=O)N[C@@H](CC(C)C)C(=O)N[C@@H](CCC(=O)O)C(=O)N[C@@H](Cc1c[nH]cn1)C(=O)N[C@H](C=O)CC(=O)O [LEHD, acetyl-L-leucyl-L-glutamyl-L-histidyl-L-aspart-1-al] (Ac-LEHD-aldehyde) | block H2O2-induced cell death |  | 
8 |  | O=c1c(O)c(-c2cc(O)c(O)c(O)c2)oc2cc(O)cc(O)c12 [myricetin] | did show neuroprotectant capacity |  | 
9 | 2.85 | COc1ccc2[nH]cc(CCNC(C)=O)c2c1 [Melatonine] | did not increased survival | weaker in its neuroprotection | 
10 |  | Cn1cnc(N)c2ncnc1-2 [3-MT, 3-methyladenine] | block H2O2-induced cell death |  | 
11 |  | Cc1c(C)c2c(c(C)c1O)CC[C@@](C)(CCC[C@H](C)CCC[C@H](C)CCCC(C)C)O2 [vitamin E, alpha-tocopherol] | only marcela extracts, quercetin or structurally similar flavonoids protected PC12 cells |  | protection / cell survival after H2O2 insult (PC12 cells; listed as alpha-tocopherol): did not increased survival

Row | Structure (SMILES) | pIC50 [2] | protection / cell survival after H2O2 insult (PC12 cells) | neuroprotection: dopamine level in ipsilateral striatum [1] | further results
12 | COc1cc2c(cc1O)C[C@H]1c3c(cc(O)c(OC)c3-2)CCN1C [Boldine] | 4.89 | only marcela extracts, quercetin or structurally similar flavonoids protected PC12 cells; also recorded: did not increased survival | did not revert in vivo the oxidative lesion; also recorded: did not show neuroprotection activity | antioxidant potency / capacity ([2]; result in words): highest antioxidant potency
13 | O=c1c(O)c(-c2ccc(O)c(O)c2)oc2cc(O)cc(O)c12 [Quercetin] | 5.43 | protected PC12 cells; also recorded: protects PC12 cells against H2O2; also recorded: Neuroprotectan effect | did not show neuroprotection activity | adverse effects in acute toxicity experiments [3]: did not show any adverse effects; time quercetin is detected in blood [4]: up to two; ischemic lesion area (male Sprague-Dawley rats; liposomal quercetin 30 mg/kg i.p. 30 min after ischemia, TTC at 24 hrs): clearly decreased the lesion area; also recorded: marked and significant decrease of the ischemic area; also recorded: recovery of the ischemic areas is clear cut; number of neurons in Nissl stained slices (male Sprague-Dawley rats; striatum and cortex, 24 hrs after occlusion): higher than ischemic rats and non different from controls; neuroprotection: dopamine level in ipsilateral striatum ([1]; listed as quercetin): did not revert in vivo the oxidative lesion; also recorded: appear not to have neuroprotectant effects in vivo; malondialdehyde production during spontaneous lipoperoxidation ([2]; result in words): decreased malondialdehyde production; antioxidant potency / capacity ([2]; result in words): potent antioxidants; IC50 ([2]; spontaneous lipoperoxidation, marcela expressed in quercetin equivalents): 1.11 µg/mL
